According to patent US10549052B2, “Nasal delivery device” (SIPNOSE LTD., priority 2012, dated 2020):
Read-outs that look alike come from different tables or passages of the source. Each block holds one compound with its values, some of them ahead of it.

Key:
[1] = Micro-PET-CT tissue absorption of F-DOPA, SipNose nasal application versus I/V administration; details: rat
Procedure: The objective of the experiment was to compare nasal application with SipNose device to a systemic application by IV administration of F-DOPA (that corresponds to the drug L-DOPA) by means of brain absorption (namely the target tissue) and systemic absorption (namely non relevant tissues contamination).
• Animals were anesthetized with a Ketamine-Xylazine cocktail. • Animals were treated according to the 2 groups as below: • 1. Systemic administration of F-DOPA by I/V injection of 1 ml. Administration doses were between 17 and 83 μg, and injected radioactivity dose was around 1000 μCi. • 2. Nasal application of F-DOPA by SipNose device application of 13-20 μl. Administration doses were between 1.2 and 2.8 μg, and injected radioactivity doses were around 26 μCi. All I/V administered animals and part of the Nasal applied animals (as will be indicated) were pre-treated with 10 mg/kg Carbidopa (by IP administration) 30 min prior to L-DOPA administration to eliminate peripheral conversion to dopamine. • Animals were subjected to Micro-PET-CT. PET scans were done for 45 min following L-DOPA administration by I/V or Nasal route. • Analysis of F-DOPA absorption in the following tissues was tested: • Brain, Heart, Lungs, liver.

[2] = Dye deposition in the olfactory epithelium following application with the present device; assay type: in vivo; details: rat, 15 microliter to one nostril with the present device, post mortem (FIG. 31B)
Source text: Methylene Blue solution (as in Example 1) was applied to the rat nose with the present device. 15 microliter was applied to one nostril and immediately after that the animal was sacrificed and the nasal and brain tissue were exposed to follow the dye deposition.

[3] = Procedure: Brain uptake of a compound with low blood-brain barrier (BBB) penetration ^11C-choline, was applied by the device of the present application (refers also as SipNose). 33.2 μCi/5.3 μmol (approx. 0.551 mg) of ^11C-choline was applied by the device of the present application to a 381 gm rat. A 45 min. dynamic PET scan was performed followed by a CT scan.
It should be noted that in the above mentioned examples, the compressed gas is in volumes of about 15 ml and compressed to about 7 bar.
Comparison of brain uptake of a compound with low blood-brain barrier (BBB) penetration, when applied to the nasal cavity with the device of the present application to deposition in the respiratory epithelium in the nasal cavity.
It should be noted that in the above mentioned examples, the compressed gas is in volumes of about 5 ml and compressed to about 4 bar.
Comparison of brain uptake of a compound with low blood-brain barrier (BBB) penetration, when applied with the present device versus intravenous (I/V) injection.
The data shown are the average of three trials for the present device, and the average of two trials for each of the I/V administration and the general nasal administration. The bar heights are relative to the brain concentration of ^11C choline after I/V administration.

[4] = rat, injected intravenously (I/V)
[5] = rat, via the present device (FIG. 41)

SMILES: N[C@@H](Cc1cc(O)c(O)cc1F)C(=O)O [F-Dopa, F-DOPA]
SipNose nasal application with versus without Carbidopa pre-treatment ([1]; 10 mg/kg Carbidopa IP 30 min prior): same results whether a pre-treatment with Carbidopa was given or not
brain concentrations, SipNose nasal application versus I/V ([1]; 22.5 min post treatment (t50 of the PET scan)): comparable
peripheral uptake compared to brain uptake ([1]; nasal application, heart, lungs, liver): lower peripheral concentrations than the brain F-Dopa concentrations
percentage of absorption in peripheral tissues relative to brain absorption, nasal versus I/V ([1]; heart, lungs, liver): lower in the nasal treated animals than in the I/V treated animals

location of dye deposition in the nasal cavity [2]: concentrated at the olfactory epithelium
SMILES: CN(C)c1ccc2nc3ccc(=[N+](C)C)cc-3sc2c1 [Methylene Blue]

location of deposition in the nasal cavity ([3]; live rat, PET-CT scan, present device (FIG. 31A)): concentrated at the olfactory epithelium
brain uptake with the present device relative to I/V application ([3]; rat, FIG. 38B versus FIG. 37B): more than 6 times
uptake to the brain ([3]; rat, I/V injection (FIG. 39)): less than 0.2 % of the administered dose
uptake to the brain ([3]; rat, SipNose nasal application, about 15 ml gas at about 7 bar, increasing gradually thereafter, 45 min dynamic PET scan): 0.6 % ID/ml
uptake to the brain ([3]; rat, SipNose nasal application, about 15 ml gas at about 7 bar, very shortly following administration): about 0.5 % ID/ml
brain uptake as share of the total drug administrated ([3]; rat, SipNose nasal application, corresponds to the % ID/ml values): ~1.2%
uptake entering the brain ([3]; rat, applied with the present device (FIG. 38B)): more than 0.5 % ID/ml
locations of uptake ([3]; rat, applied with the present device (SipNose), listed as 11C choline): mainly to the olfactory epithelium
brain concentration relative to I/V administration ([3]; rat, general nasal application, average of two trials (FIG. 40)): the same or slightly more
locations of uptake [3, 4]: mostly to the liver
uptake to the brain [3, 4]: about 0.1 % ID/ml
uptake of the radioactivity in the brain ([3]; rat, nasal application tuned to respiratory epithelium (about 5 ml, about 4 bar), no olfactory deposition, 45 minutes after activation): less than 0.1%
uptake of the radioactivity in the pharynx ([3]; rat, nasal application tuned to respiratory epithelium (about 5 ml, about 4 bar), less than a minute after activation): more than 0.4%
brain concentration relative to I/V administration ([3]; rat, present SipNose device, average of three trials (FIG. 40)): more than five times as great
uptake to the brain ([3]; rat, present device (FIG. 39)): more than 1 % of the administered dose
net uptake to non-olfactory brain tissues [3, 5]: about 2.5 μg
total uptake to the brain [3, 5]: ~6 µg
uptake to the olfactory bulbs [3, 5]: about 3 μg
SMILES: C[N+](C)(C)CCO [^11C-choline]
locations of uptake ([3]; rat, applied with the present device (SipNose)): greatest in the olfactory epithelium and least in the lungs
